Laboratory results taken from patent publication US4039540A, “3-Substituted quinoxaline-2-carboxamide-1,4-dioxides” (Pfizer Inc., priority 1975, dated 1977).
In brackets after ≈: the same amount, converted by molar mass. Like-named read-outs stand apart in the source and are kept apart here.

Columns and labels:
Strep. pyrogens = assay: in vitro antibacterial activity, two-fold serial dilution in Brain-Heart Infusion Broth (MIC); type: cell-based; conditions: overnight, anaerobic
Protocol: (§1) The broth is inoculated with bacteria and with the test quinoxaline-1,4-dioxide and then it is incubated overnight under anerobic conditions. On the next day, the test is read visually. The minimum inhibitory concentration (MIC) of test compound is the lowest concentration which prevents turbidity, i.e., which prevents growth of the microorganism.
(§2) In vitro and in vivo activity of representative compounds of this invention, determined as aforesaid, are reported in the following tabulation for compounds of the formula: [drawing 12]

E. coli [1] = assay: as above; type: cell-based; conditions: Escherichia coli, overnight, anaerobic
Protocol: as §1, §2

pathogenic bacteria = assay: in vivo activity in infected mice, last four lines of the table; conditions: bacterium and dose in drawing 28, not readable; for IN VIVO number of survivors among the treated animals (head drawing 28): subcutaneous
Protocol: (§3) In determining the in vivo activity of the quinoxaline-1,4-dioxides of this invention, the test compound is administered to mice which have been infected by […] injection of a lethal inoculum of pathogenic bacteria. The test compound is administered using a multiple dosing regimen and using either the oral (PO) or the subcutaneous (SC) route. The inoculum of bacteria varies from about 1 to about 10 times the amount needed to kill 100% of the mice under the conditions of the test. At the end of the test, the activity of the compound is assessed by counting the number of survivors among the treated animals.
as §2

Strep. pyogenes = assay: in vivo activity in mice infected with a lethal inoculum of Strep. pyogenes; conditions: Streptococcus pyogenes, multiple dosing
Protocol: as §3, §2

E. coli [2] = assay: in vivo activity in mice infected with a lethal inoculum of E. coli; conditions: Escherichia coli, sc, subcutaneous, multiple dosing, read-out: IN VIVO E. coli, number of survivors among the treated animals
Protocol: as §3, §2

[3] = oral, read-out: IN VIVO Strep. pyogenes, number of survivors among the treated animals, PO (data in parenthesis)
[4] = sc, subcutaneous, read-out: IN VIVO Strep. pyogenes, number of survivors among the treated animals

Row | SMILES | MIC (Strep. pyrogens) [µg/mL] | MIC (E. coli [1]) [µg/mL] | IN VIVO number of survivors among the treated animals, PO (data in parenthesis; head drawing 28) (pathogenic bacteria) | IN VIVO number of survivors among the treated animals (head drawing 28) (pathogenic bacteria) | responders at 50 mg/kg (Strep. pyogenes; [3]) [%] | responders at 50 mg/kg (Strep. pyogenes; [4]) [%] | responders at 25 mg/kg (E. coli [2]) [%]
1 | CN(C)C(=O)c1c(CS(=O)(=O)CCCCN2CCCCC2)[n+]([O-])c2ccccc2[n+]1[O-] [N(CH3)2; drawing 30; H] | 6.25 (≈ 13.9 µM) | 12.5 (≈ 27.7 µM) | 1/10 | 8/10 | – | – | –
2 | CNC(=O)c1c(CS(=O)(=O)CCCCN2CCCCC2)[n+]([O-])c2ccccc2[n+]1[O-] [NHCH3; drawing 29; H] | 6.25 (≈ 14.3 µM) | 12.5 (≈ 28.6 µM) | 7/10 | 10/10 | – | – | –
3 | NC(=O)c1c(CS(=O)(=O)CCCCN2CCCCC2)[n+]([O-])c2ccccc2[n+]1[O-] [NH2; drawing 31; H] | 12.5 (≈ 29.6 µM) | 25 (≈ 59.2 µM) | 0/10 | 9/10 | – | – | –
4 | CCNC(=O)c1c(CS(=O)(=O)CCCCN2CCCCC2)[n+]([O-])c2ccccc2[n+]1[O-] [NHCH2 CH3; drawing 32; H] | 6.25 (≈ 13.9 µM) | 12.5 (≈ 27.7 µM) | 7/10 | 4/10 | – | – | –
5 | CCN(CC)CCCS(=O)(=O)Cc1c(C(=O)NC)[n+]([O-])c2ccccc2[n+]1[O-] [NHCH3; SO2 (CH2)3 N(CH2 CH3)2; H] | 12.5 (≈ 30.5 µM) | 25 (≈ 60.9 µM) | – | – | 0 | 80 | 40
6 | CNC(=O)c1c(CS(=O)(=O)CCCO)[n+]([O-])c2ccccc2[n+]1[O-] [NHMe; SO2 CH2 CH2 CH2 OH; H] | 3.12 (≈ 8.79 µM) | 12.5 (≈ 35.2 µM) | – | – | 30 | 90 | 70
7 | COCCNC(=O)c1c(CS(=O)(=O)CCCN(C)C)[n+]([O-])c2ccccc2[n+]1[O-] [NHCH2 CH2 OCH3; SO2 (CH2)3 N(CH3)2; H] | 1.56 (≈ 3.66 µM) | 50 (≈ 117 µM) | – | – | 50 | 100 | 10
8 | CNC(=O)c1c(CS(=O)(=O)CCCN2CCOCC2)[n+]([O-])c2ccccc2[n+]1[O-] [NHCH3; drawing 18; H] | 25 (≈ 58.9 µM) | 25 (≈ 58.9 µM) | – | – | 70 | 100 | 0
9 | CNC(=O)c1c(CS(=O)(=O)CCOC(C)=O)[n+]([O-])c2ccccc2[n+]1[O-] [NHCH3; SO2 CH2 CH2 OAc; H] | < 0.391 | 3.12 (≈ 8.15 µM) | – | – | 70 | 90 | 80
10 | CNC(=O)c1c(CS(=O)(=O)CCCN2CCCCC2)[n+]([O-])c2ccccc2[n+]1[O-] [NHCH3; drawing 23; H] | 6.25 (≈ 14.8 µM) | 6.25 (≈ 14.8 µM) | – | – | 70 | 100 | 100
11 | CC(O)CNC(=O)c1c(CS(=O)(=O)CCO)[n+]([O-])c2ccccc2[n+]1[O-] (stereo not shown) [NHCH2 CHOHCH3; SO2 CH2 CH2 OH; H] | 12.5 (≈ 32.4 µM) | 100 (≈ 259 µM) | – | – | 10 | 0 | 20
12 | NC(=O)c1c(CS(=O)(=O)CCCN2CCOCC2)[n+]([O-])c2ccccc2[n+]1[O-] [NH2; drawing 20; H] | 12.5 (≈ 30.5 µM) | 12.5 (≈ 30.5 µM) | – | – | 60 | 100 | 20
13 | CNC(=O)c1c(CSCCCO)[n+]([O-])c2ccccc2[n+]1[O-] [NHMe; SCH2 CH2 CH2 OH; H] | 1.56 (≈ 4.83 µM) | 12.5 (≈ 38.7 µM) | – | – | 10 | 0 | 20
14 | COCCNC(=O)c1c(CS(=O)(=O)CCCN2CCCCC2)[n+]([O-])c2ccccc2[n+]1[O-] [NHCH2 CH2 OCH3; drawing 25; H] | 1.56 (≈ 3.35 µM) | 50 (≈ 107 µM) | – | – | 100 | 100 | 20
15 | CCC(CO)NC(=O)c1c(CS(=O)(=O)CCO)[n+]([O-])c2ccccc2[n+]1[O-] (stereo not shown) [NHCHEtCH2 OH; SO2 CH2 CH2 OH; H] | 3.12 (≈ 7.82 µM) | 200 (≈ 501 µM) | – | – | 80 | 0 | 10
16 | O=C(NCCCCc1ccccc1)c1c(CS(=O)(=O)CCO)[n+]([O-])c2ccccc2[n+]1[O-] [NH(CH2)4 .phi.; SO2 CH2 CH2 OH; H] | 3.12 (≈ 6.8 µM) | > 200 | – | – | 10 | 10 | 20
17 | CCN(CC)CCCS(=O)(=O)Cc1c(C(=O)N(C)C)[n+]([O-])c2ccccc2[n+]1[O-] [N(CH3)2; SO2 (CH2)3 N(CH2 CH3)2; H] | 6.25 (≈ 14.7 µM) | 25 (≈ 58.9 µM) | – | – | 10 | 60 | 0
18 | CCN(CC)CCCS(=O)(=O)Cc1c(C(N)=O)[n+]([O-])c2ccccc2[n+]1[O-] [NH2; SO2 (CH2)3 N(CH2 CH3)2; H] | 3.12 (≈ 7.88 µM) | 6.25 (≈ 15.8 µM) | – | – | 50 | 90 | 80
19 | CN(C)C(=O)c1c(CS(=O)(=O)CCCN2CCCCC2)[n+]([O-])c2ccccc2[n+]1[O-] [N(CH3)2; drawing 27; H] | 3.12 (≈ 7.16 µM) | 3.12 (≈ 7.16 µM) | – | – | 100 | 100 | 90
20 | CCNC(=O)c1c(CS(=O)(=O)CCO)[n+]([O-])c2ccccc2[n+]1[O-] [NHEt; SO2 CH2 CH2 OH; H] | 1.56 (≈ 4.4 µM) | 6.25 (≈ 17.6 µM) | – | – | 80 | 60 | 90
21 | O=C(NCC(O)CO)c1c(CS(=O)(=O)CCO)[n+]([O-])c2ccccc2[n+]1[O-] (stereo not shown) [NHCH2 CHOHCH2 OH; SO2 CH2 CH2 OH; H] | 6.25 (≈ 15.6 µM) | 200 (≈ 498 µM) | – | – | 70 | 40 | 0
22 | CCNC(=O)c1c(CS(=O)(=O)CCCN(C)C)[n+]([O-])c2ccccc2[n+]1[O-] [NHCH2 CH3; SO2 (CH2)3 N(CH3)2; H] | 1.56 (≈ 3.94 µM) | 12.5 (≈ 31.5 µM) | – | – | 100 | 100 | 100
23 | O=C(NCCCO)c1c(CSCCO)[n+]([O-])c2ccccc2[n+]1[O-] [NHCH2 CH2 CH2 OH; SCH2 CH2 OH; H] | 25 (≈ 70.7 µM) | 50 (≈ 141 µM) | – | – | 30 | 10 | 20
24 | CCOC(=O)CSCc1c(C(=O)NC)[n+]([O-])c2ccccc2[n+]1[O-] [NHCH3; SCH2 CO2 Et; H] | 12.5 (≈ 35.6 µM) | 12.5 (≈ 35.6 µM) | – | – | 0 | 0 | 30
25 | CCCCNC(=O)c1c(CS(=O)(=O)CCO)[n+]([O-])c2ccccc2[n+]1[O-] [NHBu; SO2 CH2 CH2 OH; H] | 1.56 (≈ 4.07 µM) | 25 (≈ 65.2 µM) | – | – | 40 | 0 | 40
26 | O=C(NCc1ccccc1)c1c(CS(=O)(=O)CCO)[n+]([O-])c2ccccc2[n+]1[O-] [NHCH2 .phi.; SO2 CH2 CH2 OH; H] | 0.781 (≈ 1.87 µM) | 200 (≈ 479 µM) | – | – | 20 | 20 | 20
27 | CNC(=O)c1c(CS(=O)(=O)CCO)[n+]([O-])c2ccccc2[n+]1[O-] [NHCH3; SO2 CH2 CH2 OH; H] | 1.56 (≈ 4.58 µM) | 0.781 (≈ 2.29 µM) | – | – | 40 | 80 | 100
28 | CN(C)C(=O)c1c(CS(=O)(=O)CCCN2CCOCC2)[n+]([O-])c2ccccc2[n+]1[O-] [N(CH3)2; drawing 19; H] | 25 (≈ 57 µM) | 25 (≈ 57 µM) | – | – | 10 | 0 | 20
